Assay results from patent US8664217B2, “Benzodiazepine compound and pharmaceutical composition” (Otsuka Pharmaceutical Co., Ltd., priority 2008, dated 2014).
Structures can show the parent of a compound that is named as a salt.

Molecular target: T1, human Kv1.5 channels (Homo sapiens, UniProt P22460)
T1 construct: Full-length human Kv1.5 cDNA was cloned from a human heart cDNA library; expressed in transfected cells; host or cells: CHO-K1
Test: Measurement of human Kv1.5 channel current by whole-cell patch clamp method (human Kv1.5-expressing CHO-K1 cell line)
Assay type: cell-based
Details: human Kv1.5-expressing CHO-K1 cells, step end current at +40 mV, test compound 0.1, 1, 10 μM
Protocol: Pharmacological Test 1 (1) Production of Human Kv1.5-Expressing CHO-K1 Cell Lines
CHO-K1 cell lines stably expressing human Kv1.5 channels were prepared in the following manner.
Full-length human Kv1.5 cDNA was cloned from a human heart cDNA library (produced by Stratagene). The obtained human Kv1.5 sequence corresponds to the sequence described in FASEB J. 5, 331-337 (1991).
The obtained human Kv1.5 cDNA was inserted into a plasmid encoding a CMV promoter and a G418 resistance marker to produce a Kv1.5 expression vector. The human Kv1.5 expression vector was transfected into CHO-K1 cells by the lipofectamine method. After culturing the cells in an F-12 medium (produced by Invitrogen Corp.) containing 10% FBS (produced by Invitrogen Corp.) for 3 or 4 days, the medium was replaced with a FBS-containing F-12 medium that included 1,000 μg/ml of G418 (produced by Invitrogen Corp.), and single colonies were isolated. The amount of Kv1.5 channel expression in the single colonies was quantified at the mRNA level by RT-PCR and then quantified at the protein level by western blotting. Finally, the expressed current was analyzed by patch clamp method. Cell lines expressing a current of 200 pA or more per cell were selected as channel-expressing cell lines for activity measurement by patch clamp method.
(3) Measurement of Ion Channel Current by Patch Clamp Method (Human Kv1.5-Expressing CHO-K1 Cell Line)
An experiment was carried out using a patch clamp setup at room temperature (20 to 26° C.). A perfusion chamber having a diameter of 20 mm (flow rate: about 5 ml/min) was mounted on the stage of a phase-contrast inverted microscope (produced by Nikon Corporation) placed on a vibration isolated table. A poly-L-lysine (produced by Sigma)-coated coverslip (diameter: 15 mm, produced by Matsunami Glass Ind., Ltd.) on which human Kv1.5-expressing cells were cultured was placed in the perfusion chamber.
Depolarizing stimulation pulses were applied and ionic current was recorded by using a patch clamp amplifier (EPC-7 or EPC-7 PLUS, produced by HEKA) and a personal computer (manufactured by IBM Corp.) in which software for data acquisition and analysis of ion channel current (PULSE 8.77, produced by HEKA) was installed. The current was measured in the whole-cell configuration of the patch-clamp technique. The tip (resistance: 2 to 4 MΩ) of a borosilicate glass pipette (produced by Sutter Instrument Co.) was gently placed on the cell membrane by using a three-dimensional mechanical micromanipulator (produced by Shoshin EM Corporation). […] Subsequently, stronger suction was applied to break the cell membrane. The capacitative current derived from the cell membrane was corrected using a patch clamp amplifier. Subsequently, the series resistance (Rs) between the pipette and the interior of the cell was measured and corrected.
The composition of the extracellular solution used is shown below. Unless otherwise specified, these components were obtained from Wako Pure Chemical Industries, Ltd.
Each test compound was prepared as a 1000-fold concentrated stock solution that was dissolved in DMSO and then diluted in the extracellular solution.
The composition of the electrode internal solution used is shown below. Unless otherwise specified, these components were obtained from Wako Pure Chemical Industries, Ltd.
(5) Measurement of Human Kv1.5 Current
While the membrane potential was bolded at −80 mV, depolarizing pulses (−80 mV for 0.05 seconds→+40 mV for 0.2 seconds →−40 mV for 0.2 seconds→−80 mV for 0.05 seconds) were applied at a stimulation frequency of 1 Hz to measure Kv1.5 channel current. More specifically, first, while perfusing an extracellular solution containing 0.1% DMSO and holding the membrane potential at −80 mV, depolarizing pulses were applied. The current obtained during the pulse application was recorded as a current in the absence of the test compounds. […]

T1 sequence (P22460 whole entry): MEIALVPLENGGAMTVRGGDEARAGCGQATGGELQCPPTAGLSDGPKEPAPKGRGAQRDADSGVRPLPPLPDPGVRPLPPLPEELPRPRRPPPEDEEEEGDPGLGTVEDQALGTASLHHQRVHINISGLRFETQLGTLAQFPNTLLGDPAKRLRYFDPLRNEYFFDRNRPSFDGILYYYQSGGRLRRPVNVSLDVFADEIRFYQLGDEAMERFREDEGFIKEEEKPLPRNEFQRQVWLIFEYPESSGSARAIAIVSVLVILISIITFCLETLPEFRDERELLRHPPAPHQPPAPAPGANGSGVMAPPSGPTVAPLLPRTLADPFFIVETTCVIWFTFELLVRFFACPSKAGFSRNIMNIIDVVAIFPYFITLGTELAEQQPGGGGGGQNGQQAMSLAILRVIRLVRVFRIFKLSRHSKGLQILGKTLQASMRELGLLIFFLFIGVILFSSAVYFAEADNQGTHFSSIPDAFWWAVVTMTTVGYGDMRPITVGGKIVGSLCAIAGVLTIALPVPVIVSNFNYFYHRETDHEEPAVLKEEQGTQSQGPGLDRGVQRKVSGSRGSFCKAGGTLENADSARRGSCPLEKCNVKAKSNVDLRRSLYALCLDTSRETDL

How did the IC50 turn out when `CCN1C(=O)C(C)(C)C(=O)N(C)c2cc(OCCCN(CCn3ccc4occc4c3=O)Cc3cccnc3C)ccc21` [Example 575, 1-ethyl-3,3,5-trimethyl-7-(3-{(2-methylpyridin-3-ylmethyl)-[2-(4-oxo-4H-furo[3,2-c]pyridin-5-yl)ethyl]-amino}propoxy)-1,5-dihydrobenzo[b][1,4]diazepine-2,4-dione] was run?
The IC50 was 440 nM.

With `CCN1C(=O)C(C)(C)C(=O)N(C)c2cc(OCCCN(CCn3ccc4occc4c3=O)Cc3cnccc3C)ccc21` [Example 590, 1-ethyl-3,3,5-trimethyl-7-(3-{(4-methylpyridin-3-ylmethyl)-[2-(4-oxo-4H-furo[3,2-c]pyridin-5-yl)ethyl]-amino}propoxy)-1,5-dihydrobenzo[b][1,4]diazepine-2,4-dione] as the molecule, how does the IC50 read?
The IC50 was 460 nM.

Which IC50 does the source give for `CCN1C(=O)C(C)(C)C(=O)N(C)c2cc(OCCCN(CCn3ccc4sccc4c3=O)Cc3cccnc3C)ccc21` [Example 595, 1-ethyl-3,3,5-trimethyl-7-(3-{(2-methylpyridin-3-ylmethyl)-[2-(4-oxo-4H-thieno[3,2-c]pyridin-5-yl)ethyl]-amino}propoxy)-1,5-dihydrobenzo[b][1,4]diazepine-2,4-dione] here?
The IC50 was 500 nM.

With `CCCc1ncccc1CN(CCCOc1ccc2c(c1)N(C)C(=O)C(C)(C)C(=O)N2CC)CCn1ccc2oc(C)cc2c1=O` [Example 611, 1-ethyl-3,3,5-trimethyl-7-{3-[[2-(2-methyl-4-oxo-4H-furo[3,2-c]pyridin-5-yl)ethyl]-(2-propylpyridin-3-ylmethyl)amino]propoxy}-1,5-dihydrobenzo[b][1,4]diazepine-2,4-dione dihydrochloride] as the molecule, how does the IC50 read?
Its IC50 is 310 nM.

`CCN1C(=O)C(C)(C)C(=O)N(C)c2cc(OCCCN(CCc3cccnc3)S(=O)(=O)c3ccccc3)ccc21` [Example 628, N-[3-(1-ethyl-3,3,5-trimethyl-2,4-dioxo-2,3,4,5-tetrahydro-1H-benzo[b][1,4]diazepin-7-yloxy)propyl]-N-(2-pyridin-3-ylethyl)benzenesulfonamide hydrochloride] was tested. Which IC50 did it give?
Its IC50 is 980 nM.

For `CCN1C(=O)C(C)(C)C(=O)N(C)c2cc(OCCCN(CCn3ccc4occc4c3=O)Cc3ccc(C)nc3C)ccc21` [Example 629, 7-(3-{(2,6-dimethylpyridin-3-ylmethyl)-[2-(4-oxo-4H-furo[3,2-c]pyridin-5-yl)ethyl]amino}propoxy)-1-ethyl-3,3,5-trimethyl-1,5-dihydrobenzo[b][1,4]diazepine-2,4-dione dihydrochloride], which IC50 is on record?
Its IC50 is 760 nM.

`CCN1C(=O)C(C)(C)C(=O)N(C)c2cc(OCCCN(CCc3cccnc3)C(=O)c3ccccc3)ccc21` [Example 633, N-[3-(1-ethyl-3,3,5-trimethyl-2,4-dioxo-2,3,4,5-tetrahydro-1H-benzo[b][1,4]diazepin-7-yloxy)propyl]-N-(2-pyridin-3-ylethyl)benzamide hydrochloride] was tested. Which IC50 did it give?
Its IC50 is 1100 nM.

How did the IC50 turn out when `CCN1C(=O)C(C)(C)C(=O)N(C)c2cc(OCCCN(CCn3ccc4ccccc4c3=O)S(=O)(=O)c3ccccc3)ccc21` [Example 634, N-[3-(1-ethyl-3,3,5-trimethyl-2,4-dioxo-2,3,4,5-tetrahydro-1H-benzo[b][1,4]diazepin-7-yloxy)propyl]-N-[2-(1-oxo-1H-isoquinolin-2-yl)ethyl]benzenesulfonamide] was run?
The IC50 was 360 nM.
